From publication PMC10905675, “INX-315, a Selective CDK2 Inhibitor, Induces Cell Cycle Arrest and Senescence in Solid Tumors” (Cancer Discovery, 2023)

Columns and labels:
Test in all cases: SelectScreen ZLYTE
Assay type in all cases: biochemical
Details in all cases: INX-0315 at 100nM
ERBB4 (HER4) = target: T1, ERBB4 (HER4) (Homo sapiens, UniProt Q15303)
T1 construct: purchased Thermo Fisher Scientific SelectScreen (plus Nanosyn / Reaction Biology for CDK/cyclin lines)
Method in brief: (§1)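 INX-315, single point 100 nmol/L, 1% DMSO; then 10-pt titration 1 µmol/L → 0.0495 nmol/L. Standard vendor conditions.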

CAMK1G (CAMKI gamma) = target: T2, CAMK1G (CAMKI gamma) (Homo sapiens, UniProt Q96NX5)
T2 construct: purchased Thermo Fisher Scientific SelectScreen (plus Nanosyn / Reaction Biology for CDK/cyclin lines)
Method in brief: as §1

JAK3 = target: T3, JAK3 (Homo sapiens, UniProt P52333)
T3 construct: purchased Thermo Fisher Scientific SelectScreen (plus Nanosyn / Reaction Biology for CDK/cyclin lines)
Method in brief: as §1

MAPK14 (p38 alpha) = target: T4, MAPK14 (p38 alpha) (Homo sapiens, UniProt Q16539)
T4 construct: purchased Thermo Fisher Scientific SelectScreen (plus Nanosyn / Reaction Biology for CDK/cyclin lines)
Method in brief: as §1

CSNK1A1L = target: T5, CSNK1A1L (Homo sapiens, UniProt Q8N752)
T5 construct: purchased Thermo Fisher Scientific SelectScreen (plus Nanosyn / Reaction Biology for CDK/cyclin lines)
Method in brief: as §1

JAK2 = target: T6, JAK2 (Homo sapiens, UniProt O60674)
T6 construct: purchased Thermo Fisher Scientific SelectScreen (plus Nanosyn / Reaction Biology for CDK/cyclin lines)
Method in brief: as §1

ABL1 E255K = target: T7, ABL1 E255K (Homo sapiens, UniProt P00519, E255K)
T7 construct: purchased Thermo Fisher Scientific SelectScreen (plus Nanosyn / Reaction Biology for CDK/cyclin lines)
Method in brief: as §1

FGFR2 = target: T8, FGFR2 (Homo sapiens, UniProt P21802)
T8 construct: purchased Thermo Fisher Scientific SelectScreen (plus Nanosyn / Reaction Biology for CDK/cyclin lines)
Method in brief: as §1

KIT V559D V654A = target: T9, KIT V559D V654A (Homo sapiens, UniProt P10721, V559D/V654A)
T9 construct: purchased Thermo Fisher Scientific SelectScreen (plus Nanosyn / Reaction Biology for CDK/cyclin lines)
T9 sequence (P10721 26-976 V559D/V654A): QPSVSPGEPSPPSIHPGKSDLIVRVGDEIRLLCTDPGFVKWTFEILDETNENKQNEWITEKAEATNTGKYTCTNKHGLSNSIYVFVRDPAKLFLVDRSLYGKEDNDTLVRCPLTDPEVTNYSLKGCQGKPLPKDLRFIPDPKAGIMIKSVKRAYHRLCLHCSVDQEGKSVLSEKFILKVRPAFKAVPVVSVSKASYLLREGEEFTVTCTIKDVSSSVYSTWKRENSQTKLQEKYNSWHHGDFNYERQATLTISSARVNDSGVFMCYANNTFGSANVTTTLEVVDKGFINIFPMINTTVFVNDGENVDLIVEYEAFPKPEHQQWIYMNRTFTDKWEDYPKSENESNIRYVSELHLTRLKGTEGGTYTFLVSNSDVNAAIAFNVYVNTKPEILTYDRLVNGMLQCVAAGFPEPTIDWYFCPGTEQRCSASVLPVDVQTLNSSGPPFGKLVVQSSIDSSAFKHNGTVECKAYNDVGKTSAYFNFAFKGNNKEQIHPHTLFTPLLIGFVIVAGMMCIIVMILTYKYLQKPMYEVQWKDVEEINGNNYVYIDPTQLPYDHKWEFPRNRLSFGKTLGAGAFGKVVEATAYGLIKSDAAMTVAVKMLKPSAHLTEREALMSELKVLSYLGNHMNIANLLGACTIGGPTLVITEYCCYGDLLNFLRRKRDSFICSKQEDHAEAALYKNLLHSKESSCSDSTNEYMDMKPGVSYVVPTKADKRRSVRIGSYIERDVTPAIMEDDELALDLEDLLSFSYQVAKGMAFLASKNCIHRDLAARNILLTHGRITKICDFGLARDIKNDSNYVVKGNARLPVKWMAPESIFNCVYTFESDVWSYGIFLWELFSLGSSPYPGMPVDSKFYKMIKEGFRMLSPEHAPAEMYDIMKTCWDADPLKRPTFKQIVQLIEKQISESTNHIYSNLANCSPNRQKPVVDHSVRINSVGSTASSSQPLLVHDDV
Method in brief: as §1

FYN = target: T10, FYN (Homo sapiens, UniProt P06241)
T10 construct: purchased Thermo Fisher Scientific SelectScreen (plus Nanosyn / Reaction Biology for CDK/cyclin lines)
Method in brief: as §1

CDK1/cyclin B = target: T11, CDK1/cyclin B (Homo sapiens, UniProt P06493)
T11 construct: purchased Thermo Fisher Scientific SelectScreen (plus Nanosyn / Reaction Biology for CDK/cyclin lines)
T11 sequence (P06493 whole entry): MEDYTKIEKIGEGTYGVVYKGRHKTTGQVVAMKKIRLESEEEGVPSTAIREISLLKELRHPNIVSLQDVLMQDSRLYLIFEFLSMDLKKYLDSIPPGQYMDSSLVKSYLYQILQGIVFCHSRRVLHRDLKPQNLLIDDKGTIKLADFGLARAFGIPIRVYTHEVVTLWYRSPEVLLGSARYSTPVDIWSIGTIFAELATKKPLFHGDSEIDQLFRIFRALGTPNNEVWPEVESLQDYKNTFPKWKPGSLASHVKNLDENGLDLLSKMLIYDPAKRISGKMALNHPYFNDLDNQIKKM
T11 sequence (P14635 whole entry partner): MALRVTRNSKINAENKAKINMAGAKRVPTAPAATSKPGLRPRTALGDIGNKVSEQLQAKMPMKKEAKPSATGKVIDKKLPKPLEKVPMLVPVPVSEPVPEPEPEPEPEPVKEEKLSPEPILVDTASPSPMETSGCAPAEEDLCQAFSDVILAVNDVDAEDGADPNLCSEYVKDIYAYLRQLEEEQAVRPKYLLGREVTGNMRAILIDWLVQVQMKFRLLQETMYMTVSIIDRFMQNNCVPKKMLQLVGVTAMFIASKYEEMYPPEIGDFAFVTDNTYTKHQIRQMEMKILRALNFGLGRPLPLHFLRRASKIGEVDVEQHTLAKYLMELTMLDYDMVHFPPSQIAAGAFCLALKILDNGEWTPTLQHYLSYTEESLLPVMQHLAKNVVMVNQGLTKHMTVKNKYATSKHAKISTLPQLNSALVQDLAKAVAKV
Method in brief: as §1

AMPK (A2/B1/G3) = target: T12, AMPK (A2/B1/G3) (Homo sapiens, UniProt P54646)
T12 construct: purchased Thermo Fisher Scientific SelectScreen (plus Nanosyn / Reaction Biology for CDK/cyclin lines)
T12 sequence (P54646 whole entry): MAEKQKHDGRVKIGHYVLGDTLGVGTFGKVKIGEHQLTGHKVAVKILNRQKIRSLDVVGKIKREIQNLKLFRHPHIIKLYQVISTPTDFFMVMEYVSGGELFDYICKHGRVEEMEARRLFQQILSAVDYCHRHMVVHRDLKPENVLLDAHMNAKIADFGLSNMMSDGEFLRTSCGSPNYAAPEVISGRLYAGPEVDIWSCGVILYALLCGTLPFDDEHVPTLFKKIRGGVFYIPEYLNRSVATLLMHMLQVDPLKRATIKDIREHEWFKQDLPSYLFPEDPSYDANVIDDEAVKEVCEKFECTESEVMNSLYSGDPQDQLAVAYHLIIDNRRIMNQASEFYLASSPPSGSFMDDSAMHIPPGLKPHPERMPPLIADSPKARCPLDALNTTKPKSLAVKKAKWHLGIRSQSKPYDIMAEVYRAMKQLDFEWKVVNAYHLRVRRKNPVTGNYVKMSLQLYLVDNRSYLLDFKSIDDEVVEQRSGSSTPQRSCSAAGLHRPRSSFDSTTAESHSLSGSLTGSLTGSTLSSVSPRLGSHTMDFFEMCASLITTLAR
T12 sequence (Q9Y478 whole entry partner): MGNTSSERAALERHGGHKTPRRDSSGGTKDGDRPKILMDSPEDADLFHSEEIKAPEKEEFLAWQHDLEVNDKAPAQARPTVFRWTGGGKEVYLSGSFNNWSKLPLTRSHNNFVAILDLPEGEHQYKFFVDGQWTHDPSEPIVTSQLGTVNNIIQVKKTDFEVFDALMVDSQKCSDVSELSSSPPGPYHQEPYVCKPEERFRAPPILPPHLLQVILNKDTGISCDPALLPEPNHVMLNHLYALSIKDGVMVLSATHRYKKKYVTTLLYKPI
T12 sequence (Q9UGI9 whole entry partner): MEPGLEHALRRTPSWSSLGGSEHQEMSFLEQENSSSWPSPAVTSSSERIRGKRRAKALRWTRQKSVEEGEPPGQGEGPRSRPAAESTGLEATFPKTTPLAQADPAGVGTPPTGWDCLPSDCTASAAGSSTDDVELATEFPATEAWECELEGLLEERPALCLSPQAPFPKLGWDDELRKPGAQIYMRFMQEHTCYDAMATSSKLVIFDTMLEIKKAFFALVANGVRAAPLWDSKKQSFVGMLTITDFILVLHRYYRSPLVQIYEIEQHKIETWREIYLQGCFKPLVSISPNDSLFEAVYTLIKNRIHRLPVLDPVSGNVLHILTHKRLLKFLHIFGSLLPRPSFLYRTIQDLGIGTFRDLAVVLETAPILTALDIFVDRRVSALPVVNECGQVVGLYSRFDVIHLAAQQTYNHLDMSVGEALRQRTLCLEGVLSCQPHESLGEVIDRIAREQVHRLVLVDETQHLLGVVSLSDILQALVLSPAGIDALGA
Method in brief: as §1

NTRK2 (TRKB) = target: T13, NTRK2 (TRKB) (Homo sapiens, UniProt Q16620)
T13 construct: purchased Thermo Fisher Scientific SelectScreen (plus Nanosyn / Reaction Biology for CDK/cyclin lines)
Method in brief: as §1

AMPK A2/B1/G1 = target: T14, AMPK A2/B1/G1 (Homo sapiens, UniProt P54646)
T14 construct: purchased Thermo Fisher Scientific SelectScreen (plus Nanosyn / Reaction Biology for CDK/cyclin lines)
T14 sequence (P54646 whole entry): as the sequence (P54646 whole entry) above
T14 sequence (Q9Y478 whole entry partner): as the sequence (Q9Y478 whole entry partner) above
T14 sequence (P54619 whole entry partner): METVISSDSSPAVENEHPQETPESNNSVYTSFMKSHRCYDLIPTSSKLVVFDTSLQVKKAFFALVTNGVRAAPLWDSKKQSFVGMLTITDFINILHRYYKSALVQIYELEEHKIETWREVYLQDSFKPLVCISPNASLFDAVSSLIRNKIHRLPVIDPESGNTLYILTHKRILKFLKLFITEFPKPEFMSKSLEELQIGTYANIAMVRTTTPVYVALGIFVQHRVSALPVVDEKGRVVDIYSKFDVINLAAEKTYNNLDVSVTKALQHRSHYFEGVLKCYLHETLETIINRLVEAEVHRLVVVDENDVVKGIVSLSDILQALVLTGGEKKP
Method in brief: as §1

PTK2B (FAK2) = target: T15, PTK2B (FAK2) (Homo sapiens, UniProt Q14289)
T15 construct: purchased Thermo Fisher Scientific SelectScreen (plus Nanosyn / Reaction Biology for CDK/cyclin lines)
Method in brief: as §1

RPS6KA6 (RSK4) = target: T16, RPS6KA6 (RSK4) (Homo sapiens, UniProt Q9UK32)
T16 construct: purchased Thermo Fisher Scientific SelectScreen (plus Nanosyn / Reaction Biology for CDK/cyclin lines)
Method in brief: as §1

MAPK1 (ERK2) = target: T17, MAPK1 (ERK2) (Homo sapiens, UniProt P28482)
T17 construct: purchased Thermo Fisher Scientific SelectScreen (plus Nanosyn / Reaction Biology for CDK/cyclin lines)
Method in brief: as §1

TEK (Tie2) = target: T18, TEK (Tie2) (Homo sapiens, UniProt Q02763)
T18 construct: purchased Thermo Fisher Scientific SelectScreen (plus Nanosyn / Reaction Biology for CDK/cyclin lines)
Method in brief: as §1

IRAK4 = target: T19, IRAK4 (Homo sapiens, UniProt Q9NWZ3)
T19 construct: purchased Thermo Fisher Scientific SelectScreen (plus Nanosyn / Reaction Biology for CDK/cyclin lines)
Method in brief: as §1

LTK (TYK1) = target: T20, LTK (TYK1) (Homo sapiens, UniProt P29376)
T20 construct: purchased Thermo Fisher Scientific SelectScreen (plus Nanosyn / Reaction Biology for CDK/cyclin lines)
Method in brief: as §1

PIM3 = target: T21, PIM3 (Homo sapiens, UniProt Q86V86)
T21 construct: purchased Thermo Fisher Scientific SelectScreen (plus Nanosyn / Reaction Biology for CDK/cyclin lines)
Method in brief: as §1

EPHA2 = target: T22, EPHA2 (Homo sapiens, UniProt P29317)
T22 construct: purchased Thermo Fisher Scientific SelectScreen (plus Nanosyn / Reaction Biology for CDK/cyclin lines)
Method in brief: as §1

LYN B = target: T23, LYN B (Homo sapiens, UniProt P07948)
T23 construct: purchased Thermo Fisher Scientific SelectScreen (plus Nanosyn / Reaction Biology for CDK/cyclin lines)
T23 sequence (P07948 1-491 isoform P07948-2): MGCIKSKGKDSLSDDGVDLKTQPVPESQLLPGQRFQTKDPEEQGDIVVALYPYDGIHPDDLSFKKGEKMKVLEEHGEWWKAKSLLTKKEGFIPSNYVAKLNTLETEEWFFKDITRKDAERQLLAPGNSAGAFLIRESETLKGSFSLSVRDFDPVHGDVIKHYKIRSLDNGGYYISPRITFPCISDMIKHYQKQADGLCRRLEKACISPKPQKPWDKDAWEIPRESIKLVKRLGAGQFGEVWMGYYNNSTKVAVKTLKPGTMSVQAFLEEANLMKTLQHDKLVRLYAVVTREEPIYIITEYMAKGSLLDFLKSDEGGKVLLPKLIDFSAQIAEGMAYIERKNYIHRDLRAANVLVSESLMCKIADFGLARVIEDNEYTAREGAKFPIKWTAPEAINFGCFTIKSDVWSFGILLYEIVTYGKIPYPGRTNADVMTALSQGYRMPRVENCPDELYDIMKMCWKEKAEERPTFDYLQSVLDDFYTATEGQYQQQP
Method in brief: as §1

PRKD1 (PKC mu) = target: T24, PRKD1 (PKC mu) (Homo sapiens, UniProt Q15139)
T24 construct: purchased Thermo Fisher Scientific SelectScreen (plus Nanosyn / Reaction Biology for CDK/cyclin lines)
Method in brief: as §1

PDGFRB (PDGFR beta) = target: T25, PDGFRB (PDGFR beta) (Homo sapiens, UniProt P09619)
T25 construct: purchased Thermo Fisher Scientific SelectScreen (plus Nanosyn / Reaction Biology for CDK/cyclin lines)
Method in brief: as §1

EPHA8 = target: T26, EPHA8 (Homo sapiens, UniProt P29322)
T26 construct: purchased Thermo Fisher Scientific SelectScreen (plus Nanosyn / Reaction Biology for CDK/cyclin lines)
Method in brief: as §1

ABL1 Y253F = target: T27, ABL1 Y253F (Homo sapiens, UniProt P00519, Y253F)
T27 construct: purchased Thermo Fisher Scientific SelectScreen (plus Nanosyn / Reaction Biology for CDK/cyclin lines)
Method in brief: as §1

DNA-PK = target: T28, DNA-PK (Homo sapiens, UniProt P78527)
T28 construct: purchased Thermo Fisher Scientific SelectScreen (plus Nanosyn / Reaction Biology for CDK/cyclin lines)
Method in brief: as §1

BLK = target: T29, BLK (Homo sapiens, UniProt P51451)
T29 construct: purchased Thermo Fisher Scientific SelectScreen (plus Nanosyn / Reaction Biology for CDK/cyclin lines)
Method in brief: as §1

ROCK1 = target: T30, ROCK1 (Homo sapiens, UniProt Q13464)
T30 construct: purchased Thermo Fisher Scientific SelectScreen (plus Nanosyn / Reaction Biology for CDK/cyclin lines)
Method in brief: as §1

NEK6 = target: T31, NEK6 (Homo sapiens, UniProt Q9HC98)
T31 construct: purchased Thermo Fisher Scientific SelectScreen (plus Nanosyn / Reaction Biology for CDK/cyclin lines)
Method in brief: as §1

AKT3 (PKB gamma) = target: T32, AKT3 (PKB gamma) (Homo sapiens, UniProt Q9Y243)
T32 construct: purchased Thermo Fisher Scientific SelectScreen (plus Nanosyn / Reaction Biology for CDK/cyclin lines)
T32 sequence (Q9Y243 whole entry): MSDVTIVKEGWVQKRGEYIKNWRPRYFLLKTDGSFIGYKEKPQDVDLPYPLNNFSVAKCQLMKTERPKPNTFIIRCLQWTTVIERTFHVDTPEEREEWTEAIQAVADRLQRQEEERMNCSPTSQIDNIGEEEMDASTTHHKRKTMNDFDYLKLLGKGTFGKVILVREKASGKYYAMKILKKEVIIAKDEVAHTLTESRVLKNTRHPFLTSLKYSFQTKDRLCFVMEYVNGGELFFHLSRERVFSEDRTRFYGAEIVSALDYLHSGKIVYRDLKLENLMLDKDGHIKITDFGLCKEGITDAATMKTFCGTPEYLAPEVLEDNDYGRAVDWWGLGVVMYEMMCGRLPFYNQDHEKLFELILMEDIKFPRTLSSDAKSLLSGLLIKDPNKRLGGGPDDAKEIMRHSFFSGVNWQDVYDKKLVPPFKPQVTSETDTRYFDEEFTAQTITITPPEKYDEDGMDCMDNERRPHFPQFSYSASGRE
Method in brief: as §1

MYLK2 (skMLCK) = target: T33, MYLK2 (skMLCK) (Homo sapiens, UniProt Q9H1R3)
T33 construct: purchased Thermo Fisher Scientific SelectScreen (plus Nanosyn / Reaction Biology for CDK/cyclin lines)
Method in brief: as §1

CLK3 = target: T34, CLK3 (Homo sapiens, UniProt P49761)
T34 construct: purchased Thermo Fisher Scientific SelectScreen (plus Nanosyn / Reaction Biology for CDK/cyclin lines)
Method in brief: as §1

PIM1 = target: T35, PIM1 (Homo sapiens, UniProt P11309)
T35 construct: purchased Thermo Fisher Scientific SelectScreen (plus Nanosyn / Reaction Biology for CDK/cyclin lines)
T35 sequence (P11309 whole entry): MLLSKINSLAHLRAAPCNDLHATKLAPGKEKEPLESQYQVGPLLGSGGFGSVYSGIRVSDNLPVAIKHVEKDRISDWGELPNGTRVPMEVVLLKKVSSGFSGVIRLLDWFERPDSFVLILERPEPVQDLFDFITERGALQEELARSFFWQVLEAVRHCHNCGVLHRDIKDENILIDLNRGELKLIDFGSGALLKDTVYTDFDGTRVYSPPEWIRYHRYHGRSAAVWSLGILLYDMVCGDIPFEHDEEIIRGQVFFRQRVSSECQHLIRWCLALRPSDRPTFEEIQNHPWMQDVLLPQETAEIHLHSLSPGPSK
Method in brief: as §1

SYK = target: T36, SYK (Homo sapiens, UniProt P43405)
T36 construct: purchased Thermo Fisher Scientific SelectScreen (plus Nanosyn / Reaction Biology for CDK/cyclin lines)
Method in brief: as §1

FER = target: T37, FER (Homo sapiens, UniProt P16591)
T37 construct: purchased Thermo Fisher Scientific SelectScreen (plus Nanosyn / Reaction Biology for CDK/cyclin lines)
Method in brief: as §1

PAK1 = target: T38, PAK1 (Homo sapiens, UniProt Q13153)
T38 construct: purchased Thermo Fisher Scientific SelectScreen (plus Nanosyn / Reaction Biology for CDK/cyclin lines)
Method in brief: as §1

## NS(=O)(=O)c1ccc(Nc2ncc3cc4n(c3n2)C2(CCCCC2)C(=O)NN4)cc1 [INX-315]
ERBB4 (HER4)
  inhibition at 0.1 µM: 2%
CAMK1G (CAMKI gamma)
  inhibition at 0.1 µM: 0%
JAK3
  inhibition at 0.1 µM: 24%
MAPK14 (p38 alpha)
  inhibition at 0.1 µM: 1%
CSNK1A1L
  inhibition at 0.1 µM: 4%
JAK2
  inhibition at 0.1 µM: 49%
ABL1 E255K
  inhibition at 0.1 µM: 11%
FGFR2
  inhibition at 0.1 µM: 20%
KIT V559D V654A
  inhibition at 0.1 µM: 7%
FYN
  inhibition at 0.1 µM: 4%
CDK1/cyclin B
  inhibition at 0.1 µM: 58%
AMPK (A2/B1/G3)
  inhibition at 0.1 µM: 17%
NTRK2 (TRKB)
  inhibition at 0.1 µM: 52%
AMPK A2/B1/G1
  inhibition at 0.1 µM: 5%
PTK2B (FAK2)
  inhibition at 0.1 µM: 5%
RPS6KA6 (RSK4)
  inhibition at 0.1 µM: 56%
MAPK1 (ERK2)
  inhibition at 0.1 µM: 4%
TEK (Tie2)
  inhibition at 0.1 µM: -1%
IRAK4
  inhibition at 0.1 µM: 10%
LTK (TYK1)
  inhibition at 0.1 µM: 7%
PIM3
  inhibition at 0.1 µM: 8%
EPHA2
  inhibition at 0.1 µM: 14%
LYN B
  inhibition at 0.1 µM: 17%
PRKD1 (PKC mu)
  inhibition at 0.1 µM: 9%
PDGFRB (PDGFR beta)
  inhibition at 0.1 µM: 25%
EPHA8
  inhibition at 0.1 µM: 16%
ABL1 Y253F
  inhibition at 0.1 µM: 8%
DNA-PK
  inhibition at 0.1 µM: 6%
BLK
  inhibition at 0.1 µM: 11%
ROCK1
  inhibition at 0.1 µM: 5%
NEK6
  inhibition at 0.1 µM: 1%
AKT3 (PKB gamma)
  inhibition at 0.1 µM: 6%
MYLK2 (skMLCK)
  inhibition at 0.1 µM: 4%
CLK3
  inhibition at 0.1 µM: -1%
PIM1
  inhibition at 0.1 µM: 1%
SYK
  inhibition at 0.1 µM: 8%
FER
  inhibition at 0.1 µM: 13%
PAK1
  inhibition at 0.1 µM: 6%
